Data set [1] in a line: Antioxidant activity assessed as AAPH-induced peroxyl radical scavenging activity by measuring ORAC-FL index at 0.5 to 2.5 uM preincubated for 15 mins followed by AAPH addition measured every 1 min for 120 mins by fluorescence assay relative to trolox. Type of data set: functional.
The nature of data set [2]: Antioxidant activity assessed as photolysis-induced hydroxyl radical scavenging activity at 1 mM measured after 2 mins using DMPO spin trap by ESR spectroscopic method relative to control. Type of data set: functional.
The nature of data set [3]: Selectivity index, ratio of IC50 for cytotoxicity against mouse RAW264.7 cells to IC50 for antitrypanosomal activity against epimastigote stage of Trypanosoma cruzi Dm28c. It counts as toxicity, cell-based. The note with it: read-out: Ratio IC50.
A short description of data set [4]: Cytotoxicity against mouse RAW264.7 cells measured after 4 hrs by MTT assay. It counts as toxicity.
Data set [5] relates to Trypanosoma cruzi. Briefly: Antitrypanosomal activity against Trypanosoma cruzi Dm28c epimastigotes at 10 to 100 uM measured after 24 hrs by MTT assay. Type of data set: functional. For orientation: Tetrazolium dyes change colour on reduction, which living cells bring about.
Data set [6] can be described thus: Induction of free radical species generation assessed as compound-PBN adduct formation at 1 mM by ESR spectroscopic method. Type of data set: physicochemical. Particulars: 1000 µM.
For data set [7], the system named is Trypanosoma cruzi. Briefly: Induction of free radical species generation in microsomes of Trypanosoma cruzi Dm28c epimastigotes spin adduct formation at 5 mM measured after 10 mins using DMPO spin trap by ESR spectroscopic method. Type of data set: functional.
Data set [8] is described as follows: Oxidation potential of compound against Ag/Agcl reference electrode at 1 mM by cyclic voltametry. Type of data set: physicochemical. Particulars: 1000 µM.
Data set [9] relates to Trypanosoma cruzi. Briefly: Antitrypanosomal activity against Trypanosoma cruzi Dm28c epimastigotes after 24 hrs by MTT assay. It counts as functional.
A short description of data set [10]: Oxidation potential of compound at group 2 hydroxyl against Ag/Agcl reference electrode at 1 mM by cyclic voltametry.
Data set [11] is described as follows: Oxidation potential of compound at group 1 hydroxyl against Ag/Agcl reference electrode at 1 mM by cyclic voltametry. It counts as physicochemical. Particulars: 1000 µM.
For data set [12], the system named is Trypanosoma cruzi. Briefly: Antitrypanosomal activity against trypomastigote stage of Trypanosoma cruzi Dm28c infected in African green monkey Vero cells assessed as growth inhibition incubated for 5 to 7 days post infection measured after 24 hrs by MTT assay. Type of data set: functional, cell-based.
The test system of data set [13] is Trypanosoma cruzi. Briefly: Antitrypanosomal activity against trypomastigote stage of Trypanosoma cruzi Dm28c infected in African green monkey Vero cells assessed as growth inhibition at 20 to 100 uM incubated for 5 to 7 days post infection measured after 24 hrs by MTT assay. Type of data set: functional, cell-based.
The nature of data set [14]: Selectivity index, ratio of IC50 for cytotoxicity against mouse RAW264.7 cells to IC50 for antitrypanosomal activity against trypomastigote stage of Trypanosoma cruzi Dm28c. Type of data set: toxicity, cell-based. The note with it: read-out: Ratio IC50.
Data set [15] has as its system Trypanosoma cruzi. Briefly: Potency index, ratio of nifurtimox IC50 to compound IC50 for Trypanosoma cruzi Dm28c epimastigotes. It counts as functional.
For data set [16], the system named is Trypanosoma cruzi. Nature of the data set: Potency index, ratio of nifurtimox IC50 to compound IC50 for Trypanosoma cruzi Dm28c trypamastigotes infected in African green monkey Vero cells. It counts as functional.

For orientation: IC50 means the concentration needed to halve the response being measured.

The source made the active and inactive calls. No cut-off for these calls is given here.

For the molecule `O=c1oc2cc(O)cc(O)c2cc1-c1ccccc1`, the Activity in data set [1] was 1.81; in data set [2], 100%; in data set [6], “Active”; in data set [8], 1.16 V. Also, in data set [3], the selectivity ratio was more than 16.3. The same molecule displayed an IC50 at 4 h in data set [4] of more than 100 µM. The outcome with Trypanosoma cruzi [5] and in the data set with Trypanosoma cruzi [7] was Active. Further, it took 6.15 µM to reach half-maximal inhibition in the data set on Trypanosoma cruzi [9] (IC50).

As to `O=c1oc2c(O)c(O)ccc2cc1-c1cccc(O)c1`, the Activity in data set [1] is 2.95; in data set [2], 26.1%; in [8] it was 0.81 V. For the same molecule, in data set [3], the selectivity ratio is 13.9. It took 398 µM to reach half-maximal inhibition in data set [4] (IC50 at 4 h). In addition, the outcome in the data set on Trypanosoma cruzi [5] was Active. Besides, the IC50 in the data set on Trypanosoma cruzi [9] amounted to 28.6 µM.

Consider `O=c1oc2ccc(O)cc2cc1-c1ccccc1O`, for which the Activity in [1] was 5.3; in [6] it was “Active”; in data set [8], 0.79 V. In addition, in data set [4], the half-inhibitory concentration (IC50) at 4 h was more than 100 µM. Moreover, the outcome in the data set with Trypanosoma cruzi [5] was Active. Also, the half-maximal inhibitory concentration (IC50) in the data set with Trypanosoma cruzi [9] was more than 100 µM.

In the case of `O=c1oc2ccc(O)cc2cc1-c1cccc(O)c1`, the Activity in data set [1] was 5.47; in data set [10], 1.17 V; in data set [11], 0.8 V; in data set [2], 100%; in data set [6], “Active”. The molecule further came in with a 50% inhibitory concentration (IC50) at 4 h in data set [4] of more than 100 µM. The outcome in the data set on Trypanosoma cruzi [5] was Active. The molecule further yielded an IC50 in the data set with Trypanosoma cruzi [9] of more than 100 µM.

In the case of `O=c1oc2cc(O)cc(O)c2cc1-c1cccc(O)c1`, the Activity in [1] was 1.95; in [6], “Active”. In data set [4], this molecule returned an IC50 at 4 h of more than 100 µM. The outcome in the data set with Trypanosoma cruzi [5] was Active. In the data set with Trypanosoma cruzi [9], this molecule had a concentration for half-maximal inhibition (IC50) of more than 100 µM.

Regarding `O=c1oc2c(O)c(O)ccc2cc1-c1ccc(O)c(O)c1`, the Activity in [1] was 5.38; in data set [10], 0.79 V; in data set [11] it was 0.64 V; in data set [2], 24.3%. Also, in [3], the selectivity ratio amounted to 2.07. Besides, half-maximal inhibition in [4] (IC50 at 4 h) required 97.5 µM. Also, the result in the data set on Trypanosoma cruzi [5] was Active. Besides, in the data set on Trypanosoma cruzi [9], 47 µM corresponded to half-maximal inhibition (IC50).

Consider `O=c1oc2c(O)c(O)ccc2cc1-c1ccccc1O`, for which the Activity in data set [1] is 2.23; in data set [8], 0.78 V. Moreover, the figures for the half-maximal inhibitory concentration (IC50) in the data set with Trypanosoma cruzi [12] and in the data set on Trypanosoma cruzi [9] were 39.7 µM and 1.31 µM, respectively. Besides, the outcome with Trypanosoma cruzi [13], with Trypanosoma cruzi [5] and in the data set with Trypanosoma cruzi [7] was Active. Further, the selectivity ratio in data set [3] turned out to be 52.6; in data set [14], 1.73. Also, the entries for the “Ratio IC50” value in the data set on Trypanosoma cruzi [15] and in the data set with Trypanosoma cruzi [16] were 10 - 13 and “<=13”, respectively. Further, the midpoint of inhibition in data set [4], the IC50 at 4 h, lay at 68.9 µM.

Take `O=c1oc2c(O)cccc2cc1-c1ccc(O)c(O)c1`: the figures for the Activity in [1] and in data set [8] were 4.59 and 0.81 V, respectively. For the same molecule, the selectivity ratio in data set [3] came out at 1.37. The molecule further returned a 50% inhibitory concentration (IC50) at 4 h in data set [4] of 115 µM. For the same molecule, the result in the data set with Trypanosoma cruzi [5] was Active. Besides, in the data set with Trypanosoma cruzi [9], the IC50 was 84.3 µM.

For the molecule `CC1CS(=O)(=O)CCN1/N=C/c1ccc([N+](=O)[O-])o1` (configuration not stated) [NIFURTIMOX], the selectivity ratio was 15.1 in [3] and 26.3 in [14]. Besides, in data set [4], the IC50 at 4 h stood at 263 µM. The concentration for half-maximal inhibition (IC50) in the data set with Trypanosoma cruzi [9] worked out at 17.4 µM.

As for `O=c1oc2c(O)c(O)ccc2cc1-c1ccccc1`, the Activity in [1] turned out to be 1.11; in [8] it was 0.81 V. Besides, the selectivity ratio in data set [3] turned out to be 2.93. Moreover, the midpoint of inhibition in data set [4], the IC50 at 4 h, lay at 26.1 µM. The outcome with Trypanosoma cruzi [5] and in the data set with Trypanosoma cruzi [7] was Active. Moreover, half-maximal inhibition with Trypanosoma cruzi [9] (IC50) was put at 8.9 µM.

Regarding `O=c1oc2c(O)cccc2cc1-c1cccc(O)c1`, the Activity in [1] was 3.12; in data set [8], 0.74 V. The 50% inhibitory concentration (IC50) at 4 h in data set [4] is more than 100 µM. In the data set with Trypanosoma cruzi [5], the result was Active. Moreover, the IC50 in the data set with Trypanosoma cruzi [9] was more than 100 µM.

For the origin of these results see ChEMBL document CHEMBL3872246, “Synthesis, antioxidant and antichagasic properties of a selected series of hydroxy-3-arylcoumarins” (Bioorg Med Chem, 2017).
